# Patent publication US8912181B2 (Taiho Pharmaceutical Co., Ltd., priority 2011, dated 2014)
# Experiments:
# SK-BR-3 cells = experiment: Determination of cell growth inhibition (crystal violet staining method); format: cell-based; conditions: Homo sapiens; breast cancer cells SK-BR-3, 72 hours culture with test substance
# Procedure, shortened: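 SK-BR-3 cells seeded 5,000/well, cultured 24 h at 37 °C, then exposed to compound for 72 h. Cells fixed with glutaraldehyde, stained with 0.05% crystal violet, eluted and read at 540 nm; percent growth inhibition calculated versus untreated wells.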
# [1] = target: human HSP90 alpha protein (N-terminal, amino acids 2 to 236) (Homo sapiens (Human), UniProt P07900); experiment: Determination of HSP90-binding activity (AlphaScreen competitive assay with biotinylated geldanamycin); conditions: inhibition of binding of biotinylated geldanamycin to purified HSP90 N-terminal protein, read-out: HSP-binding activity IC50
# Method: First, a purified HSP90 solution was prepared as follows: a human HSP90 alpha gene (NCBI Reference Sequence accession no. NM-005348) region corresponding to amino acids 2 to 236 of human HSP90 alpha protein (NCBI Reference Sequence accession no. NP-005339; full length: 732 amino acids) was inserted to pET-19b (Novagen; Merck KGaA) to construct a plasmid pET-HS[…] for expression of the HSP90 N-terminal protein having a His-tag at the N-terminus. E. coli (BL21(DE3), Stratagene Corp.) was transformed with pET-HS[…] and then cultured at 37° C. for 4 hours in the presence of 0.5 mM isopropyl-beta-D-thiogalactopyranoside (Sigma-Aldrich Corp.). The collected E. coli was suspended in a lysis buffer (50 mM Tris-HCl (pH 7.5), 200 mM NaCl) and sonicated. The sonicated cell solution was centrifuged (40,000×g, 20 minutes), and the supernatant was used as a crude extract. This crude extract was fractionated using Ni Sepharose High Performance (GE Healthcare Japan Corp.) chromatography and HiLoad 26/60 Superdex 75 pg (GE Healthcare Japan Corp.). Then, a fraction of HSP90 protein concentrates was prepared in a solution containing 50 mM Tris-HCl (pH 7.5) and 20% glycerol as a purified HSP90 solution. The purified HSP90 solution was divided and stored at -80° C. until use. HSP90-binding activity was determined by an AlphaScreen competitive assay system. […] After reaction at room temperature for 2 hours, biotinylated geldanamycin was added thereto at a concentration of 40 nM/well and further reacted for 1 hour. Detection mix (20 mM HEPES-KOH (pH 7.5), 0.5% BSA, 0.04 mg/mL Nickel Chelate Acceptor beads, 0.04 mg/mL Streptavidin-coated Donor beads) (#6760619C, PerkinElmer, Inc.) was added to each well in an amount equal to the amount of the reaction solution and reacted at room temperature for 1 hour in the dark. Then, fluorescence intensity was measured using Multilabel Plate Reader EnVision (PerkinElmer, Inc.). Percent inhibition (%) of the binding of biotinylated geldanamycin by each compound of the present invention was determined according to the formula shown below with the fluorescence signal of no test substance addition group as a control. […] Percent inhibition (%)=(C-T)/C×100, wherein T: Signal of well with test substance addition C: Signal of well without test substance addition.
IC50 (SK-BR-3 cells) [µM],IC50 [1] [µM],SMILES
0.1,0.21,"Cn1cc(-c2cn(-c3cccc4c(-c5ccc(C(N)=O)nc5)cc(C(F)(F)F)nc34)cn2)cn1 [Example 83, 5-(8-(4-(1-Methyl-1H-pyrazol-4-yl)-1H-imidazol-1-yl)-2-(trifluoromethyl)quinolin-4-yl)picolinamide]"
0.11,0.22,"Cc1cc(C(N)=O)ccc1-c1cc(C(F)(F)F)nc2c(-n3cnc(-c4cnn(C)c4)c3)cccc12 [Example 84, 3-Methyl-4-(8-(4-(1-methyl-1H-pyrazol-4-yl)-1H-imidazol-1-yl)-2-(trifluoromethyl)quinolin-4-yl)benzamide]"
0.01,0.1,"Cn1cc(-c2cn(-c3cccc4c(-c5ccc(C(N)=O)c(NC(C)(C)C)c5)cc(C(F)(F)F)nc34)cn2)cn1 [Example 86, 2-(Tert-butylamino)-4-(8-(4-(1-methyl-1H-pyrazol-4-yl)-1H-imidazol-1-yl)-2-(trifluoromethyl)quinolin-4-yl)benzamide]"
0.08,0.28,"CCCNc1cc(C(N)=O)ccc1-c1cc(C(F)(F)F)nc2c(-n3cnc(-c4cnn(C)c4)c3)cccc12 [Example 87, 4-(8-(4-(1-Methyl-1H-pyrazol-4-yl)-1H-imidazol-1-yl)-2-(trifluoromethyl)quinolin-4-yl)-3-(propylamino)benzamide]"
0.07,0.35,"NC(=O)c1ccc(-c2cc(C(F)(F)F)nc3c(-n4cnc(-c5cccnc5)c4)cccc23)cn1 [Example 88, 5-(8-(4-(Pyridin-3-yl)-1H-imidazol-1-yl)-2-(trifluoromethyl)quinolin-4-yl)picolinamide]"
0.01,0.22,"CCNc1cc(-c2cc(C(F)(F)F)nc3c(-n4cnc(-c5cnn(CC)c5)c4)cccc23)ccc1C(N)=O [Example 89, 4-(8-(4-(1-Ethyl-1H-pyrazol-4-yl)-1H-imidazol-1-yl)-2-(trifluoromethyl)quinolin-4-yl)-2-(ethylamino)benzamide]"
0.03,0.58,"CCn1cc(-c2cn(-c3cccc4c(-c5ccc(C(N)=O)c(NC(C)(C)C)c5)cc(C(F)(F)F)nc34)cn2)cn1 [Example 90, 2-(Tert-butylamino)-4-(8-(4-(1-ethyl-1H-pyrazol-4-yl)-1H-imidazol-1-yl)-2-(trifluoromethyl)quinolin-4-yl)benzamide]"
0.02,0.79,"CC(C)(C)Nc1cc(-c2cc(C(F)(F)F)nc3c(-n4cnc(-c5cnn(C(F)F)c5)c4)cccc23)ccc1C(N)=O [Example 92, 2-(Tert-butylamino)-4-(8-(4-(1-difluoromethyl-1H-pyrazol-4-yl)-1H-imidazol-1-yl)-2-(trifluoromethyl)quinolin-4-yl)benzamide]"
0.02,0.1,"Cc1cc2c(-n3cnc(-c4cnn(C)c4)c3)cccc2c(-c2ccc(C(N)=O)c(NC(C)(C)C)c2)n1 [Example 93, 2-(Tert-butylamino)-4-(3-methyl-5-(4-(1-methyl-1H-pyrazol-4-yl)-1H-imidazol-1-yl)isoquinolin-1-yl)benzamide]"
0.11,0.5,"Cc1cc(C(N)=O)ccc1-c1cc(C(F)(F)F)nc2c(-n3cnc(-c4cnn(C(F)F)c4)c3)cccc12 [Example 94, 4-(8-(4-(1-Difluoromethyl-1H-pyrazol-4-yl)-1H-imidazol-1-yl)-2-(trifluoromethyl)quinolin-4-yl)-3-methylbenzamide]"
1.02,0.4,"Cc1cc2c(-n3cnc(-c4cnn(C)c4)c3)cccc2c(-c2ccc(C(N)=O)cc2C)n1 [Example 95, 3-Methyl-4-(3-methyl-5-(4-(1-methyl-1H-pyrazol-4-yl)-1H-imidazol-1-yl)isoquinolin-1-yl)benzamide]"
0.06,0.14,"Cn1cc(-c2cn(-c3cccc4c(-c5ccc(C(N)=O)c(NC(C)(C)C)c5)nccc34)cn2)cn1 [Example 96, 2-(Tert-butylamino)-4-(5-(4-(1-methyl-1H-pyrazol-4-yl)-1H-imidazol-1-yl)isoquinolin-1-yl)benzamide]"
0.02,0.16,"Cc1cc(-c2ccc(C(N)=O)c(NC(C)(C)C)c2)c2cccc(-n3cnc(-c4cnn(C)c4)c3)c2n1 [Example 97, 2-(Tert-butylamino)-4-(2-methyl-8-(4-(1-methyl-1H-pyrazol-4-yl)-1H-imidazol-1-yl)quinolin-4-yl)benzamide]"

# Further lines, the compound ahead of its results:
SMILES,IC50 (SK-BR-3 cells) [µM],IC50 [1] [µM]
"Cn1cc(-c2cn(-c3cccc4c(-c5ccc(C(N)=O)c(F)c5)cc(C(F)(F)F)nc34)cn2)cn1 [Example 70, 2-Fluoro-4-(8-(4-(1-methyl-1H-pyrazol-4-yl)-1H-imidazol-1-yl)-2-(trifluoromethyl)quinolin-4-yl)benzamide]",0.06,0.21
"Cc1cc2c(-n3cnc(-c4cnn(C)c4)c3)cccc2c(-c2ccc(C(N)=O)c(N)c2)n1 [Example 71, 2-Amino-4-(3-methyl-5-(4-(1-methyl-1H-pyrazol-4-yl)-1H-imidazol-1-yl)isoquinolin-1-yl)benzamide]",0.21,0.17
"CCNc1cc(-c2nccc3c(-n4cnc(-c5cnn(C)c5)c4)ccnc23)ccc1C(N)=O [Example 72, 2-Ethylamino-4-(4-(4-(1-methyl-1H-pyrazol-4-yl)-1H-imidazol-1-yl)1,7-naphthyridin-8-yl)benzamide]",1.74,0.74
"Cn1cc(-c2cn(-c3cccc4c(-c5ccc(C(N)=O)cc5N)cc(C(F)(F)F)nc34)cn2)cn1 [Example 73, 3-Amino-4-(8-(4-(1-methyl-1H-pyrazol-4-yl)-1H-imidazol-1-yl)-2-(trifluoromethyl)quinolin-4-yl)benzamide]",0.07,0.19
"Cc1cc2c(-n3cnc(-c4cnn(C)c4)c3)cccc2c(-c2ccc(C(N)=O)cc2N)n1 [Example 74, 3-Amino-4-(3-methyl-5-(4-(1-methyl-1H-pyrazol-4-yl)-1H-imidazol-1-yl)isoquinolin-1-yl)benzamide]",1.12,0.44
"Cn1cc(-c2cn(-c3cccc4c(-c5ccc(C(N)=O)cc5N)nc(C(F)(F)F)nc34)cn2)cn1 [Example 75, 3-Amino-4-(8-(4-(1-methyl-1H-pyrazol-4-yl)-1H-imidazol-1-yl)-2-(trifluoromethyl)quinazolin-4-yl)benzamide]",0.33,0.21
"CC(C)(C)Nc1cc(-c2cc(C(F)(F)F)nc3c(-n4cnc(-c5cccnc5)c4)cccc23)ccc1C(N)=O [Example 76, 2-(Tert-butylamino)-4-(8-(4-(pyridin-3-yl)-1H-imidazol-1-yl)-2-(trifluoromethyl)quinolin-4-yl)benzamide]",0.04,0.2
"CCNc1cc(-c2cc(C(F)(F)F)nc3c(-n4cnc(-c5cccnc5)c4)cccc23)ccc1C(N)=O [Example 77, 2-(Ethylamino)-4-(8-(4-(pyridin-3-yl)-1H-imidazol-1-yl)-2-(trifluoromethyl)quinolin-4-yl)benzamide]",0.01,0.17
"NC(=O)c1ccc(-c2cc(C(F)(F)F)nc3c(-n4cnc(-c5cccnc5)c4)cccc23)cc1N [Example 78, 2-Amino-4-(8-(4-(pyridin-3-yl)-1H-imidazol-1-yl)-2-(trifluoromethyl)quinolin-4-yl)benzamide]",0.03,0.18
"Cn1cc(-c2cn(-c3cccc4c(-c5ccc(C(N)=O)c(NC(C)(C)C)c5)nc(C(F)(F)F)nc34)cn2)cn1 [Example 79, 2-(Tert-butylamino)-4-(8-(4-(1-methyl-1H-pyrazol-4-yl)-1H-imidazol-1-yl)-2-(trifluoromethyl)quinazolin-4-yl)benzamide]",0.02,0.32
"CCNc1cc(-c2nc(C(F)(F)F)nc3c(-n4cnc(-c5cnn(C)c5)c4)cccc23)ccc1C(N)=O [Example 80, 2-(Ethylamino)-4-(8-(4-(1-methyl-1H-pyrazol-4-yl)-1H-imidazol-1-yl)-2-(trifluoromethyl)quinazolin-4-yl)benzamide]",0.02,0.14
"Cn1cc(-c2cn(-c3cccc4c(-c5ccc(C(N)=O)c(Cl)c5)cc(C(F)(F)F)nc34)cn2)cn1 [Example 81, 2-Chloro-4-(8-(4-(1-methyl-1H-pyrazol-4-yl)-1H-imidazol-1-yl)-2-(trifluoromethyl)quinolin-4-yl)benzamide]",0.76,0.87
